{
  "source": "patent US7348342B2",
  "about": "“Heterocyclic compounds process for their preparation and pharmaceutical compositions containing them and their use in medicine” (Cadila Healthcare Limited, priority 2002, dated 2008)",
  "system": "carrageenan foot pad edema",
  "assay": "carrageenan foot pad edema test",
  "format": "in vivo",
  "settings": "Wistar rats, dose 30 mg/kg by oral gavage 1 h before carrageenan; for % Inhibition of paw edema 1 hour: 1 hour after carrageenan injection; for % Inhibition of paw edema 3 hour: 3 hour after carrageenan injection",
  "source_text": "The compounds of the present invention have been tested for their biological activities by carrageenan foot pad edema test in male as well as female Wistar rats according to standard protocol described in literature (Winter et. al, Proc. Soc. Exp. Biol. Med., 111, 544, (1962); Otterness and Bliven, Laboratory Models for Testing NSAIDS, in Non-Steroidal Anti-inflammatory Drugs, (J. Lombardino, ed. 1985)). The protocol followed was as described below:\nWistar rats obtained from the Experimental Animal Facility of Zydus Research. Centre. Animals were housed in an environmentally controlled rooms with food and water available ad-libitum. All the experimental protocols were approved by the Institutional Animal Ethics Committee. Animals were divided into different groups, each group comprising of five-six animals. After an overnight fast, animals of the control group received vehicle only by oral gavage whereas animals of the other groups received different doses of the test substance(s). Each rat received same volume of the formulation i.e. 2 ml/kg on body weight basis. One hour after administration of the vehicle or test substance, all the animals received sub-planter injection of carrageenan (1% w/v in saline). Paw volume was measured at 0, 1, 3 and 5 hour after carrageenan injection. Anti-inflammatory activity, expressed as % Inhibition in paw swelling was calculated by measuring change in paw volume at different time intervals after carrageenan injection vs corresponding 0 hr values using the following formula.\n[formula] Where • PVC=Average change in Paw volume of control animals • PVT=Average change in Paw volume of treated animals.",
  "data": [
    {"compound": "3-(4-Methylphenyl)-4-(3-fluoro-4-methylsulfoximinylphenyl-5H-furan-2-one [Compound 112]", "values": [
      {"measurement": "% Inhibition of paw edema 1 hour", "result": 57, "unit": "%"},
      {"measurement": "% Inhibition of paw edema 3 hour", "result": 40, "unit": "%"}
    ]},
    {"compound": "Cc1ccc(-c2cc(C(F)(F)F)nn2-c2ccc(S(N)(=O)=O)cc2)cc1", "note": "[Celecoxib, reference compound]", "values": [
      {"measurement": "% Inhibition of paw edema 1 hour", "result": 33, "unit": "%"},
      {"measurement": "% Inhibition of paw edema 3 hour", "result": 26, "unit": "%"}
    ]},
    {"compound": "5-Chloro-3-(4-methylsulfoximinylphenyl)-[2,3′]bipyridinyl [Compound 97]", "values": [
      {"measurement": "% Inhibition of paw edema 1 hour", "result": 13, "unit": "%"},
      {"measurement": "% Inhibition of paw edema 3 hour", "result": 36, "unit": "%"}
    ]},
    {"compound": "5-methyl-4-(4-methylsulfoximinylphenyl)-3-phenyl-isoxazole [Compound 153]", "values": [
      {"measurement": "% Inhibition of paw edema 1 hour", "result": 42, "unit": "%"},
      {"measurement": "% Inhibition of paw edema 3 hour", "result": 43, "unit": "%"}
    ]},
    {"compound": "3-(4-Methoxyphenyl)-5-methyl-4-(4-methylsulfoximinylphenyl)-isoxazole [Compound 154]", "values": [
      {"measurement": "% Inhibition of paw edema 1 hour", "result": 46, "unit": "%"},
      {"measurement": "% Inhibition of paw edema 3 hour", "result": 47, "unit": "%"}
    ]}
  ]
}
